“And” between values parts separate entries of the source, which are not always exact repeats. Equal values may be shown once. The source made the active and inactive calls. The rule behind the calls is not given here.
System: rodent lifetime carcinogenesis bioassay, tumor incidence TD50
Test: chronic cancer bioassays in animals – CPDB, compiled studies (AID 1745844)

Compound CC(C)CN(N=O)C(N)=O has a TD50 (rat, strain Donryu, females, in drinking water, site: any site (literature study), lesion: several types, types named in the paper, dosed 76 weeks, study length 76 weeks) of 4.7 mg/kg/day, a TD50 (rat, strain Donryu, females, in drinking water, site: digestive tract, lesion: several types, types named in the paper, dosed 76 weeks, study length 76 weeks) of 4.73 mg/kg/day and a TD50 (rat, strain Donryu, females, in drinking water, site: duodenum, lesion: several types, types named in the paper, dosed 76 weeks, study length 76 weeks) of 7.22 mg/kg/day. For the same compound, the TD50 (rat, strain Donryu, females, in drinking water, site: liver, lesion: several types, types named in the paper, dosed 76 weeks, study length 76 weeks) was 1220 mg/kg/day and the TD50 (rat, strain Donryu, females, in drinking water, site: stomach, glandular, lesion: several types, types named in the paper, dosed 76 weeks, study length 76 weeks) was 23.1 mg/kg/day.
Work on CC(C)(C)NC[C@H](O)COc1cccc2c1CCCC2=O yielded a TD50 (mouse, strain CF-1, females, in feed, site: liver, lesion: hepatoma, dosed 78 weeks, study length 78 weeks) of 5010 mg/kg/day, a TD50 (mouse, strain CF-1, females, in feed, site: lung, lesion: alveogenic adenocarcinoma, dosed 78 weeks, study length 78 weeks) of 2500 mg/kg/day and a TD50 (mouse, strain CF-1, females, in feed, site: uterus, lesion: leiomyoma, dosed 78 weeks, study length 78 weeks) of 1220 mg/kg/day. The TD50 (rat, strain Wistar albino, females, in feed, site: liver, lesion: hepatoma, benign, dosed 104 weeks, study length 104 weeks) was 2360 mg/kg/day, the TD50 (rat, strain Wistar albino, females, in feed, site: mammary gland, lesion: fibroadenoma, dosed 104 weeks, study length 104 weeks) was 71 mg/kg/day and the TD50 (rat, strain Wistar albino, males, in feed, site: liver, lesion: hepatoma, benign, dosed 104 weeks, study length 104 weeks) was 982 mg/kg/day. The TD50 (rat, strain Wistar albino, males, in feed, site: pituitary gland, lesion: adenoma, dosed 104 weeks, study length 104 weeks) was 71.9 mg/kg/day.
CN=C(N)N was tested, and the TD50 (rat, strain Wistar, males, in feed, site: liver, lesion: hemangioma, dosed 68 weeks, study length 68 weeks) was 84 mg/kg/day.
CC(=O)OC(OC(C)=O)c1ccc([N+](=O)[O-])o1 was tested, and the carcinogen call (rat, strain Holtzman albino (Sprague-Dawley derived), females, in feed, site: mammary tissue, wider than the gland, lesion: one or several types, types not named, dosed 36 weeks, study length 54 weeks) was “negative (inactive)” and the TD50 (rat, strain Holtzman albino (Sprague-Dawley derived), females, in feed, site: mammary tissue, wider than the gland, lesion: one or several types, types not named, dosed 44 weeks, study length 60 weeks) was 105 mg/kg/day (inactive).
CC(C)CCCCCCOC(=O)c1ccccc1C(=O)OCCCCCCC(C)C was tested, and the TD50 (mouse, strain B6C3F1, females, in feed, site: liver, lesion: hepatocellular carcinoma, dosed 78 weeks, study length 104 weeks) was 3340 mg/kg/day, the TD50 (mouse, strain B6C3F1, females, in feed, site: liver, lesion: hepatocellular carcinoma, dosed 79 weeks, study length 79 weeks) was 5240 mg/kg/day and the TD50 (mouse, strain B6C3F1, females, in feed, site: liver, lesion: hepatocellular carcinoma, dosed 104 weeks, study length 104 weeks) was 2620 mg/kg/day. For the same compound, the TD50 (mouse, strain B6C3F1, females, in feed, site: liver, lesion: several types, types named in the paper, dosed 79 weeks, study length 79 weeks) was 2860 mg/kg/day, the TD50 (mouse, strain B6C3F1, females, in feed, site: liver, lesion: several types, types named in the paper, dosed 104 weeks, study length 104 weeks) was 1440 mg/kg/day and the TD50 (mouse, strain B6C3F1, males, in feed, site: liver, lesion: hepatocellular carcinoma, dosed 78 weeks, study length 104 weeks) was 4100 mg/kg/day. It also gave a TD50 (mouse, strain B6C3F1, males, in feed, site: liver, lesion: hepatocellular carcinoma, dosed 79 weeks, study length 79 weeks) of 1460 mg/kg/day, a TD50 (mouse, strain B6C3F1, males, in feed, site: liver, lesion: hepatocellular carcinoma, dosed 104 weeks, study length 104 weeks) of 2920 mg/kg/day and a TD50 (mouse, strain B6C3F1, males, in feed, site: liver, lesion: several types, types named in the paper, dosed 79 weeks, study length 79 weeks) of 1460 mg/kg/day. It also gave a TD50 (mouse, strain B6C3F1, males, in feed, site: liver, lesion: several types, types named in the paper, dosed 104 weeks, study length 104 weeks) of 1590 mg/kg/day, a TD50 (rat, strain Fischer 344, females, in feed, site: all sites, lesion: mononuclear-cell leukemia, dosed 78 weeks, study length 104 weeks) of 1140 mg/kg/day and a TD50 (rat, strain Fischer 344, females, in feed, site: all sites, lesion: mononuclear-cell leukemia, dosed 79 weeks, study length 79 weeks) of 1690 mg/kg/day. The TD50 (rat, strain Fischer 344, females, in feed, site: all sites, lesion: mononuclear-cell leukemia, dosed 104 weeks, study length 104 weeks) was 458 mg/kg/day and 1150 mg/kg/day, the TD50 (rat, strain Fischer 344, females, in feed, site: liver, lesion: hepatocellular adenoma, dosed 79 weeks, study length 79 weeks) was 3440 mg/kg/day and the TD50 (rat, strain Fischer 344, females, in feed, site: liver, lesion: hepatocellular carcinoma, dosed 78 weeks, study length 104 weeks) was 14300 mg/kg/day. It also gave a TD50 (rat, strain Fischer 344, females, in feed, site: liver, lesion: hepatocellular carcinoma, dosed 104 weeks, study length 104 weeks) of 7980 mg/kg/day, a TD50 (rat, strain Fischer 344, males, in feed, site: all sites, lesion: mononuclear-cell leukemia, dosed 78 weeks, study length 104 weeks) of 445 mg/kg/day and a TD50 (rat, strain Fischer 344, males, in feed, site: kidney, lesion: tubular carcinoma, dosed 78 weeks, study length 104 weeks) of 2960 mg/kg/day. It also gave a TD50 (rat, strain Fischer 344, males, in feed, site: kidney, lesion: tubular carcinoma, dosed 104 weeks, study length 104 weeks) of 17200 mg/kg/day, a TD50 (rat, strain Fischer 344, males, in feed, site: liver, lesion: hepatocellular carcinoma, dosed 78 weeks, study length 104 weeks) of 9740 mg/kg/day and a TD50 (rat, strain Fischer 344, males, in feed, site: liver, lesion: hepatocellular carcinoma, dosed 79 weeks, study length 79 weeks) of 2750 mg/kg/day. It also gave a TD50 (rat, strain Fischer 344, males, in feed, site: liver, lesion: hepatocellular carcinoma, dosed 104 weeks, study length 104 weeks) of 2640 mg/kg/day.

From PubChem BioAssay AID1745844 (Carcinogenic Potency Database (CPDB), 2022)
